In PMC11183791, “Vancomycin population pharmacokinetics and dosing proposal for the initial treatment in obese adult patients” (Frontiers in Pharmacology, 2024):
Values after ≈ are worked out from the molar mass of the structure shown.

Assays:
[1] = Vancomycin trough serum levels after loading dose with and without the guidance of clinical pharmacists (TDM, KIMS immunoturbidimetry); assay type: in vivo, human
Protocol: The lower limits of detection and quantitation were 1.5 and 4.0 mg/L, respectively, and the measuring range was from 4.0 to 80.0 mg/L. Only levels measured during initial vancomycin therapy (first 3 days of treatment) were included in the PK analysis. If available, the MIC value of vancomycin for the isolated bacterial strain was also recorded.
Vancomycin t1/2 was calculated from Vd and clearance (CL) values using the following formula: t1/2 = 0.693 × Vd/CL. Descriptive parameter medians and interquartile range (IQR) were calculated using MS Excel 2013 (Microsoft Corporation, Redmond, United States). The Mann–Whitney U-test was used to compare vancomycin loading doses (LDs)with and without the guidance of clinical pharmacists and compare trough levels reached after loading dose administration. The linear regression model was used to evaluate the relationships between vancomycin PK parameters (Vd and CL) and continuous variables (BW, LBM, BSA, BMI, creatinine, and cystatin C-based eGFR). GraphPad Prism software version 8.2.1 (GraphPad Inc., La Jolla, CA, USA) was used for all comparisons, and p-levels <0.05 were considered statistically significant.

[2] = tested on: isolated bacterial strain (Staphylococcus spp., Enterococcus spp., Klebsiella pneumoniae, Streptococcus agalactiae); settings: isolated bacterial strains of the study patients
[3] = cited from earlier work
[4] = bootstrap analysis, 250 replicates
[5] = obese adults (BMI ≥30 kg/m^2), n = 138, iv infusion, first 3 days of treatment, one-compartment model

## CN[C@H](CC(C)C)C(=O)N[C@H]1C(=O)N[C@@H](CC(N)=O)C(=O)N[C@H]2C(=O)N[C@H]3C(=O)N[C@H](C(=O)N[C@H](C(=O)O)c4cc(O)cc(O)c4-c4cc3ccc4O)[C@H](O)c3ccc(c(Cl)c3)Oc3cc2cc(c3O[C@@H]2O[C@H](CO)[C@@H](O)[C@H](O)[C@H]2O[C@H]2C[C@](C)(N)[C@H](O)[C@H](C)O2)Oc2ccc(cc2Cl)[C@H]1O [vancomycin, Vancomycin]
[1]; LD with the guidance of clinical pharmacists
  median trough level after LD relative to the recommended therapeutic range (15–20 mg/L): in
[1]; LD without the guidance of clinical pharmacists
  median trough level after LD relative to the recommended therapeutic range (15–20 mg/L): out of the recommended therapeutic range
[4]
  CL_pop, bootstrap median (95% CI): 1.27 (1.24–1.31) L/h
  Vd_pop, bootstrap median (95% CI): 79.3 (77.8–80.9) L
  β_CL_LBM, bootstrap median (95% CI): 0.011 (0.0108–0.0113) kg
  β_CL_eGFR, bootstrap median (95% CI): 0.61 (0.60–0.63) mL/s/1.73 m^2
[5]
  CL, median (interquartile range) of individual estimates (conditional modes): 6.65 (4.95–8.42) L/h
  Vd, median (interquartile range) of individual estimates (conditional modes): 74.0 (70.5–75.4) L
Obese adults, n = 138, t1/2 = 0.693 × Vd/CL
  elimination half-life t1/2, median (interquartile range) of individual estimates: 7.7 (6.0–10.0) h
Patient with LBM of 68 kg and eGFR of 1.51 mL/s/1.73 m^2
  t1/2 corresponding to estimated CL and Vd of 75 L: 7.4 h
Patient with LBM of 68 kg and eGFR of 1.51 mL/s/1.73 m^2 (median values of the study population)
  CL estimated from the final covariate equation: 7 L/h
Typical value of parameter, final covariate population PK model, obese adults
  Vd_pop, final model estimate: 75.0 L
Typical value, CL=CL_pop×e^(β_CL_eGFR×eGFR)×e^(β_CL_LBM×LBM)
  CL_pop, final model estimate: 1.32 L/h
[2]
  MIC, median (min–max): 1 (≤0.5–2) mg/L
  MIC, modus: 1 µg/mL (≈ 0.69 µM)
[3]; can be prolonged in renal insufficiency, ref Rybak, 2006
  elimination half-life (t1/2): 6 to 12 h
[3]; ref Matzke et al., 1986
  distribution half-life: approximately 7 min
  distribution phase duration: approximately 0.5 h
[3]; ref Rybak et al., 2009
  absorption after oral administration: not absorbed efficiently
[3]; ref Rybak, 2006
  portion of dose excreted unchanged via glomerular filtration: majority
[3]; ref Shingde et al., 2019
  contribution of the distribution phase to total vancomycin exposure: < 10%
